Measured values as given in EP4786466A1, “QUINAZOLINE DERIVATIVE, SALT THEREOF, AND PHARMACEUTICAL COMPOSITION COMPRISING SAME AS ACTIVE INGREDIENT” (Korea Research Institute of Chemical Technology, priority 2023, dated 2025).
Structures can show the parent of a compound that is named as a salt. Where two headings read alike, the source gives them in different places.

What was measured:
[1] = biological target: T1, Recombinant GST-TAG-MASTL (Homo sapiens, UniProt Q96GX5); assay: HTRF-based kinase assay (HTRF KinEASE assay kit); assay type: biochemical; conditions: for activity at 10 µM: read-out: MASTL activity (%) HTRF; for activity at 1 µM: compound 1 µM, read-out: MASTL activity (%) HTRF (1 µM)
T1 construct: GST; purchased Thermo Fisher Scientific
T1 sequence (Q96GX5 1-879): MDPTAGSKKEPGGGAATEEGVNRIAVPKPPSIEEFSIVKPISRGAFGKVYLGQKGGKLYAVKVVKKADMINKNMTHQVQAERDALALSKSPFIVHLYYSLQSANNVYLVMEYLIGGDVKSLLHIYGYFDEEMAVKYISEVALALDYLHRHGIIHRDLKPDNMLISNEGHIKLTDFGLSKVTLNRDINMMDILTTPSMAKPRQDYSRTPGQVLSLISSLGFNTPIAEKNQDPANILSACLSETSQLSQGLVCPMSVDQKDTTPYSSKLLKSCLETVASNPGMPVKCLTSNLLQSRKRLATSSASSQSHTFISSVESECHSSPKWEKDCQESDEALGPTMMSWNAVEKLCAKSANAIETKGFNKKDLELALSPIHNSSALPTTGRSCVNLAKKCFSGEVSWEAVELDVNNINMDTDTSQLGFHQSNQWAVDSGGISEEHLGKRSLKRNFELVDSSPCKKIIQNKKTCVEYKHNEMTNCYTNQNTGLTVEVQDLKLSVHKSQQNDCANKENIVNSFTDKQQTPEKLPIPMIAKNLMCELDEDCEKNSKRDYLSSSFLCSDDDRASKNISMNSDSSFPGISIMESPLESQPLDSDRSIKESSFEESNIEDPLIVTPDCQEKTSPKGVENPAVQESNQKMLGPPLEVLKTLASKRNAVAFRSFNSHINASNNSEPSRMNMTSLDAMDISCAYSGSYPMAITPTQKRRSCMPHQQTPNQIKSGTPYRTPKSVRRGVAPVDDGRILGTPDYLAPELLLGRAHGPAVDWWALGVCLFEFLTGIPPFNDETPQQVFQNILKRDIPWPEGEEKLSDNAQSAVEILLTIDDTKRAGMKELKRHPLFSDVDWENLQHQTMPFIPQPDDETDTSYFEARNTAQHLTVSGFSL
Description: Recombinant GST-TAG-MASTL (Thermo Fisher Scientific, MA, USA) was used for HTRF-based kinase assays. The HTRF KinEASE assay kit (CisBio, MA, USA) was used according to the manufacturer's instructions.

[2] = test system: MCF10A normal breast cell lines; assay: Cell viability analysis, WST-8 assay, MCF10A; conditions: Homo sapiens, MCF-10A, 72 h
Description: (§1) MCF7 breast cancer cell lines and MCF10A normal breast cancer cell lines were treated with serial dilutions of the compounds of the present invention ranging from 1 µM to 15.63 nM for 72 hours. Cell viability was measured by the WST-8 assay (Cyto XTM cell viability assay kit; LPS solution, Daejeon, Korea) according to the manufacturer's instructions.

[3] = test system: pENSA; assay: pENSA level by immunofluorescence (described method: in vitro kinase analysis with GST-tag-MASTL and His-tag-ENSA); assay type: cell-based; conditions: for pENSA (%) Immunofluor ecense (1 µM): compound 1 µM
Procedure, shortened: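 In vitro kinase reaction using recombinant GST-tagged MASTL with His-tagged ENSA as substrate; phosphorylated ENSA (pENSA) serves as read-out of MASTL activity. Cell lines named: MCF7 breast cancer and MCF10A.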

[4] = in vitro; conditions: human
Description: as §1

[5] = test system: MCF7 breast cancer cell lines; assay: Cell viability analysis, WST-8 assay, MCF7; conditions: Homo sapiens, MCF7, 72 h; for viability at 1.25 µM: read-out: Cell viability (%) WST-8, MCF7, footnote a: concentration 1.25 µM, 72 hours; for viability at 1 µM: read-out: Cell viability (%) WST-8, MCF7 (1 µM), compound 1 µM, 72 hours
Description: as §1

[6] = HTRF, read-out: IC50(nM) MASTL activity
[7] = footnote b: concentration 10 µM
[8] = read-out: IC50 Cell viability (MCF10A)
[9] = read-out: IC50 Cell viability (MCF7)
[10] = read-out: IC50(nM) Cell viability (MCF10A)
[11] = read-out: IC50(nM) Cell viability (MCF7)

Row | SMILES | IC50 [1, 6] [nM] | activity at 10 µM [1, 7] [%] | IC50 [2, 8] [nM] | pENSA (%) Immunofluor ecense (1 µM) [3] [%] | IC50 ([3]; read-out: IC50(nM) pENSA) [nM] | viability at 1.25 µM ([4]; mcf10a cells) [%] | viability at 1.25 µM [5] [%] | IC50 [5, 9] [nM] | activity at 1 µM [1] [%] | IC50 [2, 10] [nM] | IC50 ([3]; unit µM, read-out: IC50 pENSA) [nM] | viability at 1 µM [4] [%] | viability at 1 µM [5] [%] | IC50 [5, 11] [nM] | IC50 [1] [nM] | activity at 10 µM [1] [%] | viability at 1 µM ([4]; mcf10a cells) [%]
1 | OCCNc1nc(Nc2cc(C3CC3)[nH]n2)c2ccccc2n1 [compound 4cf, 2-((4-((5-cyclopropyl-1G-pyrazol-3-yl)amino)quinazolin-2-yl)amino)ethan-1-ol hydrochloride] | 893 | 23.7 | 1200 | 17.4 | 423 | 56.4 | 87 | 1800 | – | – | – | – | – | – | – | – | –
2 | c1ccc2c(Nc3cc(C4CC4)[nH]n3)nc(Nc3cccc4[nH]ccc34)nc2c1 [compound 4da, N^4-(5-cyclopropyl-1H-pyrazol-3-yl)-N^2-(1H-indol-4-yl)quinazoline-2,4-diamine] | 309 | – | – | – | – | – | – | – | 58.5 | 683 | 1800 | 18.9 | 30.1 | 702 | – | – | –
3 | c1ccc2c(Nc3cc(C4CC4)[nH]n3)nc(Nc3ccc4[nH]ccc4c3)nc2c1 [compound 4db, N^4-(5-cyclopropyl-1H-pyrazol-3-yl)-N^2-(1H-indol-5-yl)quinazoline-2,4-diamine] | – | – | – | – | – | – | – | – | 28.9 | 300 | 2100 | 8.9 | 3.2 | 221 | – | – | –
4 | c1ccc2c(Nc3cc(C4CC4)[nH]n3)nc(Nc3ccc4cc[nH]c4c3)nc2c1 [compound 4dc, N^4-(5-cyclopropyl-1H-pyrazol-3-yl)-N^2-(1H-indol-6-yl)quinazoline-2,4-diamine] | 480 | – | 1300 | – | – | – | – | – | 22.1 | – | 2500 | 54 | 6.4 | 467 | – | – | –
5 | c1ccc2c(Nc3cc(C4CC4)[nH]n3)nc(Nc3ccc4[nH]ncc4c3)nc2c1 [compound 4dd, N^4-(5-cyclopropyl-1H-pyrazol-3-yl)-N^2-(1H-indazol-5-yl)quinazoline-2,4-diamine] | 157 | – | – | – | – | – | – | – | 17.9 | 107 | 1500 | 3.7 | 12.9 | 317 | – | – | –
6 | CNS(=O)(=O)c1ccc(Nc2nc(Nc3cc(C4CC4)[nH]n3)c3ccccc3n2)cc1 [compound 4h, 4-((4-((5-cyclopropyl-1G-pyrazol-3-yl)amino)quinazolin-2-yl)amino)-M-methylbenzenesulfonamide] | 843 | 17.6 | – | 17.1 | 408 | 4.7 | 41.8 | – | – | 57.2 | – | – | – | 758 | – | – | –
7 | O=S(=O)(NCCO)c1ccc(Nc2nc(Nc3cc(C4CC4)[nH]n3)c3ccccc3n2)cc1 [compound 4i, 4-((4-((5-cyclopropyl-1G-pyrazol-3-yl)amino)quinazolin-2-yl)amino)-M-(2-hydroxyethyl)benzenesulfonamide] | – | – | – | 16 | 378 | 5.8 | 45.9 | 1100 | – | 132 | – | – | – | – | 1200 | 8.7 | –
8 | c1ccc2c(Nc3cc(C4CC4)[nH]n3)nc(Nc3cc(C4CC4)[nH]n3)nc2c1 [compound 4n, M^2,M^4-bis(5-cyclopropyl-1G-pyrazol-3-yl)quinazoline-2,4-diamine] | – | – | – | 92.8 | – | – | – | – | 106 | 116 | – | – | 21.5 | 287 | – | – | 3.2
9 | O=C(O)Cc1ccc(Nc2nc(Nc3cc(C4CC4)[nH]n3)c3ccccc3n2)cc1 [compound 4s, 2-(4-((4-((5-cyclopropyl-1G-pyrazol-3-yl)amino)quinazolin-2-yl)amino)phenyl)acetic acid] | – | – | – | 89.1 | 89.1 | – | – | – | 56.2 | 113 | – | – | 102 | 102 | – | – | 113
